According to publication PMC5094189 (Journal of the American Chemical Society, 2016):

Key:
[1] = system: U937 human histiocytic lymphoma cells; details: cited from earlier work
Toledo cells = test: Toledo cell growth assay; type: cell-based
[2] = system: TNFα secretion from U937 cells; test: TNFα secretion from U937 cells; type: cell-based, human; details: treatment for 60 hours
[3] = system: U937 human histiocytic lymphoma cells; details: cited from earlier work; remark: listed apart in the source

SMILES | behavior in U937 promyelocytic leukemia cells [1] | growth inhibition of Toledo cells (Toledo cells) | TNFα secretion [2] | effect on proliferation of U937 cells [1] | effect on attachment of U937 cells [3]
COC(=O)/C=C1\C[C@H]2C[C@]3(O)O[C@H](C[C@@H](O)CC(=O)O[C@@H](C)[C@H](O)C[C@@H]4C[C@@H]5CC(=O)O[C@]5(O4)C(=O)C(C)(C)/C=C/[C@@H](C1)O2)C[C@H](OC(=O)C(C)(C)C)C3(C)C [Neristatin 1] | bryostatin 1-like behavior | – | – | – | –
CCCCCCCCCCCCCC(=O)O[C@@H]1[C@@H](C)[C@@]2(O)[C@@H](C=C(CO)C[C@]3(O)C(=O)C(C)=C[C@@H]23)[C@@H]2C(C)(C)[C@]12OC(C)=O [PMA, phorbol 12-myristate 13-acetate] | – | induce antiproliferative responses | induces secretion in a dose-dependent manner | inhibits the proliferation | promotes attachment
CCC/C=C/C=C/C(=O)O[C@H]1/C(=C/C(=O)OC)C[C@H]2C[C@H]([C@@H](C)O)OC(=O)C[C@H](O)C[C@@H]3C[C@H](OC(C)=O)C(C)(C)[C@](O)(C[C@@H]4C/C(=C/C(=O)OC)C[C@H](/C=C/C(C)(C)[C@]1(O)O2)O4)O3 [bryostatin 1] | – | induce antiproliferative responses | little effect | little response | little response
